Activity calls are given as the source filed them. The calls are words filed in the database; no cut-off is given here.
Legend:
Aedes aegypti [1] = assay: Mosquitocidal activity against fourth-instar larvae of Aedes aegypti assessed as mortality after 24 hr; type: functional, organism-based
Manduca sexta = assay: Antifeedant activity against Manduca sexta at 100 ug/ml after 6 days; type: functional
Panagrellus redivivus = assay: Nematicidal activity against Panagrellus redivivus assessed as mortality at 100 ug/ml after 24 hr by microscopic analysis; type: functional
Candida albicans = assay: Antimicrobial activity against Candida albicans at 100 ug/ml after 72 hr; type: functional
Aedes aegypti [2] = assay: Mosquitocidal activity against fourth-instar larvae of Aedes aegypti assessed as mortality at 200 ug/ml after 24 hr; type: functional
Aedes aegypti [3] = assay: Mosquitocidal activity against fourth-instar larvae of Aedes aegypti assessed as mortality at 100 ug/ml after 24 hr; type: functional
Staphylococcus aureus = assay: Antimicrobial activity against Staphylococcus aureus at 100 ug/ml after 72 hr; type: functional, organism-based
Pichia kudriavzevii = assay: Antimicrobial activity against Pichia kudriavzevii at 100 ug/ml after 72 hr; type: functional
Candida parapsilosis = assay: Antimicrobial activity against Candida parapsilosis at 100 ug/ml after 72 hr; type: functional
[4] = test system: Staphylococcus epidermidis; assay: Antimicrobial activity against Staphylococcus epidermidis at 100 ug/ml after 72 hr; type: functional, organism-based
Aspergillus flavus = assay: Antimicrobial activity against Aspergillus flavus at 100 ug/ml after 72 hr; type: functional, organism-based
Aspergillus parasiticus = assay: Antimicrobial activity against Aspergillus parasiticus at 100 ug/ml after 72 hr; type: functional, organism-based
Fusarium oxysporum = assay: Antimicrobial activity against Fusarium oxysporum at 100 ug/ml after 72 hr; type: functional, organism-based
Escherichia coli = assay: Antimicrobial activity against Escherichia coli at 100 ug/ml after 72 hr; type: functional, organism-based
Helicoverpa zea = assay: Antifeedant activity against Helicoverpa zea (corn earworm) at 100 ug/ml after 6 days; type: functional
Caenorhabditis elegans = assay: Nematicidal activity against Caenorhabditis elegans assessed as mortality at 100 ug/ml after 24 hr by microscopic analysis; type: functional
Heliothis virescens = assay: Antifeedant activity against Heliothis virescens (tobacco budworm) at 100 ug/ml after 6 days; type: functional

SMILES | mortality (Aedes aegypti [1]) | Activity (Manduca sexta) | Activity (Staphylococcus aureus) | Activity [4] | Activity (Aspergillus flavus) | Activity (Aspergillus parasiticus) | Activity (Fusarium oxysporum) | Activity (Escherichia coli) | Activity (Helicoverpa zea) | Activity (Heliothis virescens) | mortality (Panagrellus redivivus) | inhibition zone (IZ) (Candida albicans) | inhibition zone (IZ) (Pichia kudriavzevii) | inhibition zone (IZ) (Candida parapsilosis) | mortality (Caenorhabditis elegans) | other results
C/C=C/c1cc(OC)c(OC)cc1OC [TRANS-ASARONE] | Active | 79% | inactive | inactive | inactive | inactive | inactive | inactive | 97% | 96% | – | – | – | – | – | mortality at 100 µg/mL (Panagrellus redivivus): 100%; zone of inhibition at 100 µg/mL (Candida albicans; read-out: IZ): 6 mm; mortality at 200 µg/mL (Aedes aegypti [2]): 100%; mortality at 100 µg/mL (Aedes aegypti [3]): 43%; zone of inhibition at 100 µg/mL (Pichia kudriavzevii; read-out: IZ): 7 mm; zone of inhibition at 100 µg/mL (Candida parapsilosis; Lodderomyces parapsilosis, read-out: IZ): 6 mm; mortality at 100 µg/mL (Caenorhabditis elegans): 100%
CCCCCCCC/C=C\CCCCCCCC(=O)O | inactive | – | inactive | inactive | inactive | inactive | inactive | inactive | – | – | inactive | inactive | inactive | inactive | inactive | –
COc1cc(OC)c(OC)cc1C=O | inactive | inactive | inactive | inactive | inactive | inactive | inactive | inactive | inactive | inactive | inactive | inactive | inactive | inactive | inactive | –
CC(C)=CCC/C(C)=C/CO | inactive | inactive | inactive | inactive | inactive | inactive | inactive | inactive | inactive | inactive | inactive | inactive | inactive | inactive | inactive | –
